Calls of active or inactive are those of the source. The calls are words filed in the database; no cut-off is given here. Numbered stars: 1 amine (or outer) side, 2 acyl side, 3 side chain; on linkers, the order of the positions; unused ones are H or OH. Bridge positions count the residues as written; N and C are the ends. Square brackets hold non-standard residues; d marks the D form. Peptide text beside a SMILES is read from it. I, II: the chains in the order shown. ξ: configuration not given here. X1 = O=C([C@H](Cc1c[nH]c2ccccc12)N(c1ccc([N+](=O)[O-])c2nonc12)[*:1])[*:2]; ξN = NC(=O)CC(N)C(=O)O
Columns and labels:
[1] = system: HepG2; experiment: Cytotoxicity against human HepG2 cells assessed as cell viability at 30 uM measured after 24 hrs by CCK-8 assay relative to control; assay type: functional; details: read-out: Activity
[2] = Cytotoxicity against human L02 cells assessed as reduction in cell viability measured after 24 hrs by CCK-8 assay; assay type: toxicity, cell-based
[3] = system: HepG2; experiment: Induction of apoptosis in human HepG2 cells assessed as viable cells at 15 uM measured after 24 hrs by Annexin V-FITC/propidium iodide staining based flow cytometry relative to control; assay type: functional; details: read-out: Activity
[4] = system: A549; experiment: Cytotoxicity against human A549 cells assessed as reduction in cell viability measured after 24 hrs by CCK-8 assay; assay type: functional, cell-based; details: for IC50: A549, 24 h
[5] = system: L02; experiment: Induction of apoptosis in human L02 cells assessed as reduction in viable cells at 15 uM measured after 24 hrs by Annexin V-FITC/propidium iodide staining based flow cytometry; assay type: toxicity, cell-based; details: l02, 24 h
[6] = system: HepG2; experiment: Cytotoxicity against human HepG2 cells assessed as reduction in cell viability measured after 24 hrs by CCK-8 assay; assay type: functional, cell-based; details: for IC50: HepG2, 24 h
[7] = system: BEAS-2B; experiment: Induction of apoptosis in human BEAS-2B cells assessed as reduction in viable cells at 15 uM measured after 24 hrs by Annexin V-FITC/propidium iodide staining based flow cytometry; assay type: toxicity, cell-based
[8] = system: A549; experiment: Cytotoxicity against human A549 cells assessed as cell viability at 30 uM measured after 24 hrs by CCK-8 assay relative to control; assay type: functional; details: read-out: Activity
[9] = system: A549; experiment: Induction of apoptosis in human A549 cells assessed as viable cells at 15 uM measured after 24 hrs by Annexin V-FITC/propidium iodide staining based flow cytometry relative to control; assay type: functional; details: read-out: Activity
[10] = Cytotoxicity against human BEAS-2B cells assessed as reduction in cell viability measured after 24 hrs by CCK-8 assay; assay type: toxicity, cell-based
[11] = system: HepG2; experiment: Induction of morphological changes in human HepG2 cells assessed as appearance of abnormal cell morphology at 15 uM measured after 24 hrs by high-throughput microscopy; assay type: functional, cell-based
[12] = system: HepG2; experiment: Induction of apoptosis in human HepG2 cells assessed as increase in necrotic cells at 15 uM measured after 24 hrs by Annexin V-FITC/propidium iodide staining based flow cytometry; assay type: functional, cell-based
[13] = system: A549; experiment: Induction of cell membrane disruption in human A549 cells assessed as increase in LDH release at 15 uM measured after 1 hr by LDH releasing reagent based assay
[14] = system: A549; experiment: Induction of apoptosis in human A549 cells assessed as increase in late apoptotic cells at 15 uM measured after 24 hrs by Annexin V-FITC/propidium iodide staining based flow cytometry; assay type: functional, cell-based
[15] = system: HepG2; experiment: Induction of cell membrane disruption in human HepG2 cells assessed as increase in LDH release at 15 uM measured after 1 hr by LDH releasing reagent based assay
[16] = system: HepG2; experiment: Induction of apoptosis in human HepG2 cells assessed as increase in late apoptotic cells at 15 uM measured after 24 hrs by Annexin V-FITC/propidium iodide staining based flow cytometry; assay type: functional, cell-based
[17] = system: A549; experiment: Induction of apoptosis in human A549 cells assessed as increase in necrotic cells at 15 uM measured after 24 hrs by Annexin V-FITC/propidium iodide staining based flow cytometry; assay type: functional, cell-based
[18] = system: HepG2; experiment: Induction of morphological changes in human HepG2 cells assessed as decrease in cell number at 15 uM measured after 24 hrs by high-throughput microscopy; assay type: functional, cell-based
[19] = Drug uptake in human HepG2 cells at 15 uM measured after 1 hr by Hoechst 33258 staining based flow cyotmetry; assay type: ADME, cell-based; details: hepg2, 1 h
[20] = Drug uptake in human L02 cells at 15 uM measured after 1 hr by Hoechst 33258 staining based confocal laser scanning microscopy; assay type: ADME, cell-based; details: l02, 1 h
[21] = Drug uptake in human HepG2 cells at 15 uM measured after 1 hr by Hoechst 33258 staining based confocal laser scanning microscopy; assay type: ADME, cell-based; details: hepg2, 1 h
[22] = Drug uptake in human A549 cells at 15 uM measured after 1 hr by Hoechst 33258 staining based flow cyotmetry; assay type: ADME, cell-based; details: a549, 1 h
[23] = Drug uptake in human BEAS-2B cells at 15 uM measured after 1 hr by Hoechst 33258 staining based flow cyotmetry; assay type: ADME, cell-based
[24] = Drug uptake in human BEAS-2B cells at 15 uM measured after 1 hr by Hoechst 33258 staining based confocal laser scanning microscopy; assay type: ADME, cell-based
[25] = Drug uptake in human A549 cells at 15 uM measured after 1 hr by Hoechst 33258 staining based confocal laser scanning microscopy; assay type: ADME, cell-based; details: a549, 1 h
[26] = Drug uptake in human L02 cells at 15 uM measured after 1 hr by Hoechst 33258 staining based flow cyotmetry; assay type: ADME, cell-based; details: l02, 1 h

Compound	IC50 at 24 h [2] [µM]	IC50 [4] [µM]	Activity [5]	IC50 [6] [µM]	Activity [7]	IC50 at 24 h [10] [µM]	Activity [11]	Activity [12]	Activity [13]	Activity [14]	Activity [15]	Activity [16]	Activity [17]	Activity [18]	also measured
N=C(N)NCCC[C@H](NC(=O)[C@H](CCCNC(=N)N)NC(=O)[C@H](CCCNC(=N)N)NC(=O)[C@H](CCCNC(=N)N)NC(=O)[C@H](CCCNC(=N)N)NC(=O)[C@H](CCCNC(=N)N)NC(=O)[C@H](CCCNC(=N)N)NC(=O)[C@H](CCCNC(=N)N)NC(=O)[C@@H](N)CCCNC(=N)N)C(=O)O	> 100	> 100	Non-Toxic	> 100	Non-Toxic	> 100									viability at 30 µM [1]: > 90%; viability at 15 µM [3]: > 80%; viability at 30 µM [8]: > 90%; viability at 15 µM [9]: > 80%
N=C(N)NCCC[C@H](NC(=O)[C@H](CCCNC(=N)N)NC(=O)[C@H](CCCNC(=N)N)NC(=O)[C@H](CCC(N)=O)NC(=O)[C@H](CCCNC(=N)N)NC(=O)[C@H](CCCNC(=N)N)NC(=O)[C@H](CCCCN)NC(=O)[C@H](CCCCN)NC(=O)[C@H](CCCNC(=N)N)NC(=O)CNC(=O)[C@@H](N)Cc1ccc(O)cc1)C(=O)O	> 100	> 100	Non-Toxic	> 100	Non-Toxic	> 100									viability at 30 µM [1]: > 90%; viability at 15 µM [3]: > 80%; viability at 30 µM [8]: > 90%; viability at 15 µM [9]: > 80%
CC(C)C[C@H](NC(=O)[C@H](CCCCN)NC(=O)CNC(=O)[C@H](CC(C)C)NC(=O)[C@@H](NC(=O)[C@@H](NC(=O)[C@H](CC(C)C)NC(=O)[C@H](CCC(=O)O)NC(=O)[C@@H](N)Cc1c[nH]c2ccccc12)C(C)C)C(C)C)C(=O)O (H-WELVVLGKL-OH)		90	Non-Toxic		Non-Toxic										
CC(C)C[C@H](NC(=O)[C@H](CCCCN)NC(=O)CNC(=O)[C@H](CC(C)C)NC(=O)[C@@H](NC(=O)[C@@H](NC(=O)[C@H](CC(C)C)NC(=O)[C@H](CCC(=O)O)NC(=O)[C@@H](N)Cc1c[nH]c2ccccc12)C(C)C)C(C)C)C(=O)N[C@@H](CC(C)C)C(=O)N[C@@H](CC(C)C)C(=O)N[C@@H](Cc1c[nH]cn1)C(=O)N[C@@H](Cc1c[nH]cn1)C(=O)N[C@@H](CC(C)C)C(=O)N[C@@H](CC(C)C)C(=O)N[C@@H](Cc1c[nH]cn1)C(=O)N[C@@H](Cc1c[nH]cn1)C(=O)N[C@@H](CC(C)C)C(=O)N[C@@H](CC(C)C)C(=O)N[C@@H](Cc1c[nH]cn1)C(=O)N[C@@H](Cc1c[nH]cn1)C(=O)N[C@@H](CCCNC(=N)N)C(=O)N[C@@H](CCCNC(=N)N)C(=O)N[C@@H](CCCNC(=N)N)C(=O)N[C@@H](CCCNC(=N)N)C(=O)N[C@@H](CCCNC(=N)N)C(=O)N[C@@H](CCCNC(=N)N)C(=O)N[C@@H](CCCNC(=N)N)C(=O)N[C@@H](CCCNC(=N)N)C(=O)N[C@@H](CCCNC(=N)N)C(=O)O (H-WELVVLGKLLLHHLLHHLLHHRRRRRRRRR-OH)	15.6	10.5	Non-Toxic	10.1	Non-Toxic	18.5	Active	Active	Active	Active	Active	Active	Active	Active	
CC(C)C[C@H](NC(=O)[C@H](CCCCN)NC(=O)CNC(=O)[C@H](CC(C)C)NC(=O)[C@@H](NC(=O)[C@@H](NC(=O)[C@H](CC(C)C)NC(=O)[C@H](CCC(=O)O)NC(=O)[C@@H](N)Cc1c[nH]c2ccccc12)C(C)C)C(C)C)C(=O)N[C@@H](CCCNC(=N)N)C(=O)N[C@@H](CCCNC(=N)N)C(=O)N[C@@H](CCCNC(=N)N)C(=O)N[C@@H](CCCNC(=N)N)C(=O)N[C@@H](CCCNC(=N)N)C(=O)N[C@@H](CCCNC(=N)N)C(=O)N[C@@H](CCCNC(=N)N)C(=O)N[C@@H](CCCNC(=N)N)C(=O)N[C@@H](CCCNC(=N)N)C(=O)O (H-WELVVLGKLRRRRRRRRR-OH)	21.6	17.3	Non-Toxic	14.4	Non-Toxic	22.8	Active	Active	Active	Active	Active	Active	Active	Active	Activity ([4]; DDE = dose-dependent effect): Dde; Activity ([6]; DDE = dose-dependent effect): Dde
CC(C)C[C@H](NC(=O)[C@H](CCCCN)NC(=O)CNC(=O)[C@H](CC(C)C)NC(=O)[C@@H](NC(=O)[C@@H](NC(=O)[C@H](CC(C)C)NC(=O)[C@H](CCC(=O)O)NC(=O)[C@H](Cc1c[nH]c2ccccc12)Nc1ccc([N+](=O)[O-])c2nonc12)C(C)C)C(C)C)C(=O)N[C@@H](CC(C)C)C(=O)N[C@@H](CC(C)C)C(=O)N[C@@H](Cc1c[nH]cn1)C(=O)N[C@@H](Cc1c[nH]cn1)C(=O)N[C@@H](CC(C)C)C(=O)N[C@@H](CC(C)C)C(=O)N[C@@H](Cc1c[nH]cn1)C(=O)N[C@@H](Cc1c[nH]cn1)C(=O)N[C@@H](CC(C)C)C(=O)N[C@@H](CC(C)C)C(=O)N[C@@H](Cc1c[nH]cn1)C(=O)N[C@@H](Cc1c[nH]cn1)C(=O)N[C@@H](CCCNC(=N)N)C(=O)N[C@@H](CCCNC(=N)N)C(=O)N[C@@H](CCCNC(=N)N)C(=O)N[C@@H](CCCNC(=N)N)C(=O)N[C@@H](CCCNC(=N)N)C(=O)N[C@@H](CCCNC(=N)N)C(=O)N[C@@H](CCCNC(=N)N)C(=O)N[C@@H](CCCNC(=N)N)C(=O)N[C@@H](CCCNC(=N)N)C(=O)O (H-[X1]ELVVLGKLLLHHLLHHLLHHRRRRRRRRR-OH)															Drug uptake [19]: Active; Drug uptake [20]: Active; Drug uptake [21]: Active; Drug uptake [22]: Active; Drug uptake [23]: Active; Drug uptake [24]: Active; Drug uptake [25]: Active; Drug uptake [26]: Active
I: H-WELVVLGKLGLRKRLRKFRNKIKEK / II: H-GLRKRLRKFR[ξN]KIKEK-OH (amide I:C-II:4)	18.4	13.1	Non-Toxic	13.2	Non-Toxic	19.8	Active	Active	Active	Active	Active	Active	Active	Active	

Source: ChEMBL document CHEMBL5120831, “Pep5-based antitumor peptides containing multifunctional fragments with enhanced activity and synergistic effect” (Eur J Med Chem, 2022)
